The values that follow come from patent publication US20080269161A1, “Compositions and Methods Relating to Mitochondrial Hyperpolarization in Neurological Disease” (priority 2005, published 2008).

The test system of assay [1] is mitochondrial membrane potential of rat cortical neurons. Type of assay: cell-based. The following applies: neurotoxin alone. On the procedure:
Curve fits are non-formulaic software interpolations of the data points.
Changes in mitochondrial function that could be associated with the increased vesicular activity were evaluated. Mitochondria generate the energy for synaptic transmission in the form of ATP, and as a byproduct of this oxidative phosphorylation, they are also one of the primary producers of intracellular ROS. Two key mitochondrial parameters were examined in response to Tat and PAF: 1) mitochondrial membrane potential (ΔΨm) [as assessed by mitochondrial uptake of the lipophilic cationic dyes tetramethylrhodamine ethyl or methyl ester (TMRE or TMRM respectively)], and 2) ATP production (as measured by luciferase assay). The electronegative mitochondrial membrane potential provides the driving force for calcium buffering and ATP production by the mitochondria, and as such, ΔΨm is frequently used as an indicator of mitochondrial health and energetic capacity. Moreover, fluctuations in ΔΨm can trigger mitochondrial release of pro-apoptotic factors, an event most frequently associated with a loss of ΔΨm.
Monitoring alterations in ΔΨm with TMRM: In the relevant methods described herein, changes in mitochondrial membrane potential (ΔΨm) in response to Tat or PAF treatment is assessed by TMRM, which must equilibrate across the plasma membrane before entering the mitochondria; and in whole cell applications dye concentration in the mitochondria is dependent on both plasma membrane potential (ΔΨp) and AΨm. At sufficiently low dye concentrations (TMRM =1 nM, i.e. high cell/dye ratio) and normal membrane potentials, ≧95% of the dye is in the mitochondria, and ≦1% in the media, which results in an approximately 100× sensitivity of the dye to ΔΨm over ΔΨp, given equivalent changes in plasma or mitochondrial membrane potential [Rottenberg, H. and S. Wu, Biochim Biophys Acta, 1998. 1404(3): p. 393-40].
For these methods, primary rodent neurons are treated with reagent under normal culture conditions for the indicated time period, followed by removal of the media, 1×2 minute wash in pre-warmed 37° C. HBSS plus 10 mM glucose and 10 mM HEPES (HBSS+), then incubation in HBSS+ with 1 nM TMRE/M. Following equilibration of the dye for 20 minutes to ensure distribution across the mitochondrial membrane, the cells are imaged while remaining in the 1 nM TMRE/M solution, as is necessary for a continued dye equilibrium state. Random field images are taken using an Olympus IX-70 microscope and 40× objective (fluorescent excitation: 545; emission: 610) and Apogee KX32ME CCD camera, and the mean relative fluorescent unit (RFU) value of the neuronal soma and processes (excluding mitochondria deficient regions) is quantified using Scanalytics IPLab software.

A further assay deals with hippocampal neurons. The assay can be described thus: Dendrite beading and spine loss in hippocampal neurons in vitro. Type of assay: cell-based, rat. The following applies: cPAF 130 nM, 60 hours. The source says:
(A) cPAF causes dendrite beading and loss of dendritic spines. (A′) Low-magnification images show minimal changes in dendrite morphology and total spine number in control cultures (left). In cPAF-treated cultures (right), dendrite beading (red arrows) is accompanied by spine loss and sprouting of filopodia (green arrowheads) but gross aspects of dendrite structure are preserved. (B) No cells developed dendritic swellings in control cultures, while 55±3% of cPAF-exposed cells beaded. (C) 43±5% of dendritic spines were lost during cPAF exposure, while total spine number was maintained in control cultures.
An additional pathologic consequence of exposure to HIV-1 neurotoxins is an increase in oxidized cellular phospholipids that can bind to and activate the PAF-R [Marathe, G. K., et al., Vascul Pharmacol, 2002. 38(4): p. 193-200]. Both energetic stress and PAF-R signaling have the potential to impair post-synaptic neurotransmission. Thus, a morphologic correlate of dendrite damage in HAD was identified, which is activity-induced dendritic swelling or “beading” in the presence of the HIV neurotoxin cPAF. […]
(3) Primary rat hippocampal neurons (HN). […] Dissociated cells are counted by trypan blue viability assay and plated in cell culture plates at 0.5-0.6×10^5 cells/cm^2, on poly-D-lysine-coated cell culture plastic or sterile glass coverslips. […]

“Also recorded” adds a separate entry of the source.

In the case of `CCCCCCCCCCCCCCCCOC[C@H](COP(=O)([O-])OCC[N+](C)(C)C)OC(=O)NC` [PAF, carbamyl-platelet-activating factor], in assay [1], the “effect on ΔΨm” value is given as “dose dependent increases; also recorded: dose-dependent rise”. Besides, in the assay on hippocampal neurons, the “cells with dendrite beading” value amounted to 55±3% and the dendritic spines lost is 43±5%.
